Measured values: patent US12544372B2, “Methods of treating rheumatoid arthritis, chronic spontaneous urticaria, and systemic lupus erythematosis using an inhibitor of Bruton's tyrosine kinase” (Genentech, Inc., priority 2019, dated 2026)

Tested on: patients with refractory chronic spontaneous urticaria
Test: Phase II CSU study (Cohorts 1 and 2): UAS7, weekly itch, weekly hives
Assay type: in vivo, human
Text: A Phase II, Multicenter, Randomized, Double-Blind, Placebo-Controlled Pilot and Dose-Ranging Study of Fenebrutinib in Patients with Refractory Chronic Spontaneous Urticaria (CSU)
This study was designed to evaluate the efficacy and safety of fenebrutinib compared with placebo as add-on therapy for the treatment of adult patients 18-75 years old who have been diagnosed with CSU and who remain symptomatic despite treatment with H1 antihistamines. Specific objectives and corresponding endpoints for the study are outlined below.
This pilot and dose-ranging study is a multicenter, randomized, double-blind, placebo-controlled, parallel-group study of the efficacy and safety of fenebrutinib as add-on therapy for the treatment of adult patients 18-75 years old who have been diagnosed with CSU and who remain symptomatic despite treatment with H1 antihistamines (including doses up to 4 times the approved dose per local treatment guidelines). The study consists of two cohorts. Cohort 1 enrolled 41 patients across multiple sites. After screening, eligible patients were randomly allocated in a ˜2:1 ratio to receive fenebrutinib 200 mg orally (PO) twice daily (BID) (n=28) or matching placebo (n=13) for 8 weeks and maintain stable doses of standard-of-care H1 antihistamine therapy throughout the study. A dose-ranging cohort, Cohort 2, enrolled approximately 120 patients randomly allocated in a 1:1:1:1 ratio received 50 mg PO daily (QD), 150 mg PO QD, 200 mg PO BID of GDC-0853, or placebo, respectively, for 8 weeks while maintaining stable doses of standard-of-care H1 antihistamine therapy throughout the study.
Both cohorts consist of three study periods over 14 weeks: (i) a screening period (Day −14 to Day −1), (ii) a treatment period [Day 1 to Day 57 (Week 0 to Week 8)], and (iii) a follow-up period [Day 57 to Day 85 (Week 8 to Week 12)].
The primary efficacy endpoint was measured at Week 8 (Day 57). Patients must have maintained stable doses of their pre-randomization H1 antihistamine therapy throughout the treatment period. After completion of the 8-week treatment period, all patients in both cohorts will enter a 4-week safety follow-up period in which no fenebrutinib treatment is given as patients maintain stable doses of their pre-randomization H1 antihistamine therapy.
The primary efficacy endpoint was the change in baseline in the UAS7 at Week 8 (Day 57). The change in the UAS7 (Table 9) is a summation of the average daily (a.m./p.m.) scores on the UAS (range: 0-6), which is a composite diary score with numeric severity intensity ratings on a scale of 0-3 (0=none to 3=intense/severe) for two domains: the intensity of the itch and the number of wheals/hives. The UAS is recorded by the patient twice daily (morning and evening) in the patient Urticaria Patient Daily eDiary.
Continuous longitudinal efficacy endpoints will be analyzed using a mixed model for repeated measures (MMRM) and descriptive statistics as appropriate. Additional model covariates will include baseline UAS7 and its interaction with visit. Missing data will be handled by the model under the missing-at-random assumption without need for imputation.
The secondary efficacy measurements are as described above in the “Study Objectives” section of this Example 2, and apply the UAS7 score and the weekly itch score measurement. Weekly itch scores are measured as part of the study patient's Urticaria Patient Daily eDiary.

[1] = Cohort 1, 200 mg BID vs placebo

Compound: C[C@H]1CN(C2COC2)CCN1c1ccc(Nc2cc(-c3ccnc(N4CCn5c(cc6c5CC(C)(C)C6)C4=O)c3CO)cn(C)c2=O)nc1 [fenebrutinib, (S)-2-(3′-(hydroxymethyl)-1-methyl-5-((5-(2-methyl-4-(oxetan-3-yl)piperazin-1-yl)pyridin-2-yl)amino)-6-oxo-1,6-dihydro-[3,4′-bipyridin]-2′-yl)-7,7-dimethyl-2,3,4,6,7,8-hexahydro-1H-cyclopenta[4,5]pyrrolo[1,2-a]pyrazin-1-one]
- UAS7 - Change from BL to Week 4, Mean (SD) (Cohort 1, 200 mg BID): −21.1 (11.3)
- UAS7 - Change from BL to Week 4, Median (Cohort 1, 200 mg BID): −22.5
- UAS7 - Change from BL to Week 8, Mean (SD) (Cohort 1, 200 mg BID): −21.6 (11.8)
- UAS7 - Change from BL to Week 8, Median (Cohort 1, 200 mg BID): −23.0
- Weekly Hive Score - Change from BL to Week 4, Mean (SD) (Cohort 1, 200 mg BID): −11.6 (6.8)
- Weekly Hive Score - Change from BL to Week 4, Median (Cohort 1, 200 mg BID): −14.0
- Weekly Hive Score - Change from BL to Week 8, Mean (SD) (Cohort 1, 200 mg BID): −12.2 (7.1)
- Weekly Hive Score - Change from BL to Week 8, Median (Cohort 1, 200 mg BID): −14.0
- Weekly Itch Severity - Change from BL to Week 4, Mean (SD) (Cohort 1, 200 mg BID): −9.5 (5.4)
- Weekly Itch Severity - Change from BL to Week 4, Median (Cohort 1, 200 mg BID): −9.0
- Weekly Itch Severity - Change from BL to Week 8, Mean (SD) (Cohort 1, 200 mg BID): −9.4 (5.6)
- Weekly Itch Severity - Change from BL to Week 8, Median (Cohort 1, 200 mg BID): −9.0
- UAS7 - Change from BL to Week 4, Treatment difference in LS means, 90% CI [1]: −12.5 (−18.9, −6.1) 0.002
- UAS7 - Change from BL to Week 8, Treatment difference in LS means, 90% CI [1]: −4.3 (−11.3, 2.7) 0.305
- Weekly Hive Score - Change from BL to Week 4, Treatment difference in LS means, 90% CI [1]: −7.5 (−11.2, −3.7) 0.002
- Weekly Hive Score - Change from BL to Week 8, Treatment difference in LS means, 90% CI [1]: −2.8 (−6.9, 1.4) 0.269
- Weekly Itch Severity - Change from BL to Week 4, Treatment difference in LS means, 90% CI [1]: −5.5 (−8.5, −2.6) 0.003
- Weekly Itch Severity - Change from BL to Week 8, Treatment difference in LS means, 90% CI [1]: −1.3 (−4.5, 1.8) 0.479
- patients well-controlled (UAS7≤6) (Cohort 1, 200 mg BID, Week 4): 64%
- well-controlled patients, % treatment difference over placebo (Cohort 1, 200 mg BID, Week 4): 48.6%
- patients well-controlled (UAS7≤6) (Cohort 1, 200 mg BID, Week 8): 65%
- well-controlled patients, % treatment difference over placebo (Cohort 1, 200 mg BID, Week 8): 31.9%
- weekly itch scores (treatment difference in LS means) (Cohort 1 and Cohort 2, each treatment group, all comers, Week 8): reduced weekly itch scores in each group
